# From patent US20160130278A1 (TAISHO PHARMACEUTICAL CO., LTD, priority 2013, published 2016)
# Target: T1, human type 1 glycine transporter (GlyT1) (Homo sapiens, UniProt P48067)
# T1 construct: T98G cells (glioma cells) expressing human type 1 glycine transporter (GlyT1) were used
# T1 sequence (P48067 1-706): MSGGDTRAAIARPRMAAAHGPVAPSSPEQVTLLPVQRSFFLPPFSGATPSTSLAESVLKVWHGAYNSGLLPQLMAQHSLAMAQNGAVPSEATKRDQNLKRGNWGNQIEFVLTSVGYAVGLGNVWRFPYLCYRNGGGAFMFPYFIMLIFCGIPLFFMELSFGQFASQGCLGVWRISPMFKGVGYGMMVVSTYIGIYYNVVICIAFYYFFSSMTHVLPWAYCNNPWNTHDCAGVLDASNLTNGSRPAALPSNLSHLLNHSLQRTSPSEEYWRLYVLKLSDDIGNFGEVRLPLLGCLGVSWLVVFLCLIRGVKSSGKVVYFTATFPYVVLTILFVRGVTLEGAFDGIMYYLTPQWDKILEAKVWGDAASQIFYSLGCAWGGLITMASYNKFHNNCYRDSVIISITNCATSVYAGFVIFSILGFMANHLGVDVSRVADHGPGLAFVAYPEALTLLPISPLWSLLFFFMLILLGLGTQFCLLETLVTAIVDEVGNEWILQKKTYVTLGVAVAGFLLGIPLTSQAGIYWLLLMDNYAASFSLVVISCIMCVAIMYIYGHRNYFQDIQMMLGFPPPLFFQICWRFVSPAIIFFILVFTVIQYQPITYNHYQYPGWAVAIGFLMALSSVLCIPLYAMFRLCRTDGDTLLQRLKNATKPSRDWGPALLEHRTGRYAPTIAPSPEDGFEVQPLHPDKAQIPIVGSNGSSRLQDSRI
# Experiment: Glycine uptake inhibition experiment ([3H]glycine uptake)
# Format: cell-based
# Conditions: GlyT1
# Summary of the method: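 T98G glioma cells expressing human GlyT1 were pretreated 10 min with compound in HEPES buffer pH 7.4 (0.2% BSA), then incubated with compound plus 250 nM final [3H]glycine for 15 min at room temperature. Intracellular radioactivity was counted after NaOH lysis; 10 μM ALX5407 defined non-specific uptake. IC50 came from 10^−9–10^−5 M curves.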
row,SMILES,IC50 [nM]
1,"O=C(NC(c1cccc(F)c1Cl)[C@]1(O)CC[C@@H](F)CC1)c1ncc(Cl)cc1C(F)(F)F (single isomer, unassigned) [Compound 316, 5-chloro-N-[(2-chloro-3-fluorophenyl)(cis-4-fluoro-1-hydroxycyclohexyl)methyl]-3-(trifluoromethyl)pyridine-2-carboxamide]",5800
2,"Cc1cccc(C)c1C(=O)NC(c1ccccc1)C1(O)CCCC1 (stereo not drawn) [Compound 30, N-[(1-hydroxycyclopentyl)(phenyl)methyl]-2,6-dimethylbenzamide]",6500
3,"O=C(NC(c1cccc(F)c1Cl)[C@]1(O)CC[C@@H](F)CC1)c1ccnc(C(F)(F)F)c1Cl (single isomer, unassigned) [Compound 223, 3-chloro-N-[(2-chloro-3-fluorophenyl)(cis-4-fluoro-1-hydroxycyclohexyl)methyl]-2-(trifluoromethyl)pyridine-4-carboxamide]",56
4,"O=C(NC(c1cccnc1Cl)[C@]1(O)CC[C@@H](F)CC1)c1ccnc(C(F)(F)F)c1Cl (single isomer, unassigned) [Compound 321, 3-chloro-N-[(2-chloropyridin-3-yl)(cis-4-fluoro-1-hydroxycyclohexyl)methyl]-2-(trifluoromethyl)pyridine-4-carboxamide]",590
5,"CS(=O)(=O)c1ccccc1C(=O)NC(c1cccc(F)c1Cl)[C@]1(O)CC[C@@H](F)CC1 (single isomer, unassigned) [Compound 281, N-[(2-chloro-3-fluorophenyl)(cis-4-fluoro-1-hydroxycyclohexyl)methyl]-2-(methylsulfonyl)benzamide]",2100
6,"O=C(NC(c1cccc(F)c1Cl)[C@]1(O)CC[C@@H](F)CC1)c1cnnc2ccccc12 (single isomer, unassigned) [Compound 259, N-[(2-chloro-3-fluorophenyl)(cis-4-fluoro-1-hydroxycyclohexyl)methyl]cinnoline-4-carboxamide]",1000
7,"O=C(NC(c1cccc(F)c1Cl)[C@]1(O)CC[C@@H](F)CC1)c1cc(Cl)nnc1Cl (single isomer, unassigned) [Compound 305, 3,6-dichloro-N-[(2-chloro-3-fluorophenyl)(cis-4-fluoro-1-hydroxycyclohexyl)methyl]pyridazine-4-carboxamide]",1000
8,"CCn1cc(-c2cccc(C(NC(=O)c3cccc(C)c3Cl)C3(O)CCC(F)(F)CC3)c2)cn1 (single isomer, unassigned) [Compound 152, 2-chloro-N-{(4,4-difluoro-1-hydroxycyclohexyl)[3-(1-ethyl-1H-pyrazol-4-yl)phenyl]methyl}-3-methylbenzamide]",1300
9,"O=C(NC(c1cccc(F)c1Cl)[C@]1(O)CC[C@@H](F)CC1)c1cc(Cl)cc(Cl)c1 (single isomer, unassigned) [Compound 253, 3,5-dichloro-N-[(2-chloro-3-fluorophenyl)(cis-4-fluoro-1-hydroxycyclohexyl)methyl]benzamide]",8300
10,"O=C(NC(c1cccc(F)c1F)C1(O)CCC(F)(F)CC1)c1ccnc(C(F)(F)F)c1Cl (single isomer, unassigned) [Compound 165, 3-chloro-N-[(4,4-difluoro-1-hydroxycyclohexyl)(2,3-difluorophenyl)methyl]-2-(trifluromethyl)pyridine-4-carboxamide]",210
11,"O=C(NC(c1cccc(Cl)n1)[C@]1(O)CC[C@@H](F)CC1)c1nccc2ccccc12 (single isomer, unassigned) [Compound 310, N-[(6-chloropyridin-2-yl)(cis-4-fluoro-1-hydroxycyclohexyl)methyl]isoquinoline-1-carboxamide]",550

# More lines, now with the values ahead:
row,IC50 [nM],SMILES
1,220,"O=C(NC(c1cccc(F)c1)C1(O)CCCC1)c1cccc(C(F)(F)F)c1Cl (single isomer, unassigned) [Compound 73, 2-chloro-N-[(3-fluorophenyl)(1-hydroxycyclopentyl)methyl]-3-(trifluoromethyl)benzamide]"
2,170,"O=C(NC(c1cc(F)ccc1Cl)[C@]1(O)CC[C@@H](F)CC1)c1nccc(C(F)(F)F)c1Cl (single isomer, unassigned) [Compound 374, 3-chloro-N-[(2-chloro-5-fluorophenyl)(cis-4-fluoro-1-hydroxycyclohexyl)methyl]-4-(trifluoromethyl)pyridine-2-carboxamide]"
3,39,"O=C(NC(c1cccc(Cl)c1Cl)C1(O)CCCC1)c1nccc(C(F)(F)F)c1Cl (stereo not drawn) [Compound 107, 3-chloro-N-[(2,3-dichlorophenyl)(1-hydroxycyclopentyl)methyl]-4-(trifluoromethyl)pyridine-2-carboxamide]"
4,180,"O=C(NC(c1cc(F)cc(Cl)c1)C1(O)CCCC1)c1nccc(C(F)(F)F)c1Cl (stereo not drawn) [Compound 88, 3-chloro-N-[(3-chloro-5-fluroophenyl)(1-hydroxycyclopentyl)methyl]-4-(trifluoromethyl)pyridine-2-carboxamide]"
5,90,"O=C(NC(c1cccc(Cl)c1)C1(O)CCCC1)c1nccc(C(F)(F)F)c1Cl (stereo not drawn) [Compound 45, 3-chloro-N-[(3-chlorophenyl)(1-hydroxycyclopentyl)methyl]-4-(trifluoromethyl)pyridine-2-carboxamide]"
6,240,"O=C(NC(c1cncc(Cl)c1)[C@]1(O)CC[C@@H](F)CC1)c1nccc(C(F)(F)F)c1Cl (single isomer, unassigned) [Compound 242, 3-chloro-N-[(5-chloropyridin-3-yl)(cis-4-fluoro-1-hydroxycyclohexyl)methyl]-4-(trifluoromethyl)pyridine-2-carboxamide]"
7,5200,"O=C(NC(c1ccc(F)cc1Cl)C1(O)CCCC1)c1nccc(C(F)(F)F)c1Cl (single isomer, unassigned) [Compound 99, 3-chloro-N-[(2-chloro-4-fluorophenyl)(1-hydroxycyclopentyl)methyl]-4-(trifluoromethyl)pyridine-2-carboxamide]"
8,1400,"O=C(N[C@@H](c1cccc(Br)c1)C1(O)CCCC1)c1nccc(C(F)(F)F)c1-n1cccn1 [Compound 69, N-[(S)-(3-bromophenyl)(1-hydroxycyclopentyl)methyl]-3-(1H-pyrazol-1-yl)-4-(trifluoromethyl)pyridine-2-carboxamide]"
9,44,"CCn1cc(-c2cccc(C(NC(=O)c3cccc(C(F)(F)F)c3Cl)C3(O)CCCCC3)c2)cn1 (stereo not drawn) [Compound 16, 2-chloro-N-{[3-(1-ethyl-1H-pyrazol-4-yl)phenyl](1-hydroxycyclohexyl)methyl}-3-(trifluoromethyl)benzamide]"
10,510,"O=C(N[C@@H](c1cccc(Cl)c1)[C@]1(O)CC[C@@H](F)CC1)c1cc(C(F)(F)F)ncc1Cl [Compound 227, 5-chloro-N-[(S)-(3-chlorophenyl)(cis-4-fluoro-1-hydroxycyclohexyl)methyl]-2-(trifluoromethyl)pyridine-4-carboxamide]"
11,2700,"O=C(NC(c1ccc(Cl)nc1)C1(O)CCC(F)(F)CC1)c1nccc(C(F)(F)F)c1Cl (single isomer, unassigned) [Compound 278, 3-chloro-N-[(6-chloropyridin-3-yl)(4,4-difluoro-1-hydroxycyclohexyl)methyl]-4-(trifluoromethyl)pyridine-2-carboxamide]"
12,640,"O=C(NC(c1ccc(Cl)nc1)C1(O)CCC(F)(F)CC1)c1nccc(C(F)(F)F)c1Cl (single isomer, unassigned) [Compound 277, 3-chloro-N-[(6-chloropyridin-3-yl)(4,4-difluoro-1-hydroxycyclohexyl)methyl]-4-(trifluoromethyl)pyridine-2-carboxamide]"
13,34,"O=C(NC(c1cccc(-c2ccncc2)c1)C1(O)CCCC1)c1nccc(C(F)(F)F)c1Cl (stereo not drawn) [Compound 19, 3-chloro-N-{(1-hydroxycyclopentyl)[3-(pyridin-4-yl)phenyl]methyl}-4-(trifluoromethyl)pyridine-2-carboxamide]"
14,890,"O=C(NC(c1cccnc1)[C@]1(O)CC[C@@H](F)CC1)c1nccc(C(F)(F)F)c1Cl (single isomer, unassigned) [Compound 265, 3-chloro-N-[(cis-4-fluoro-1-hydroxycyclohexyl)(pyridin-3-yl)methyl]-4-(trifluoromethyl)pyridine-2-carboxamide]"
15,9500,"O=C(NC(c1ccc(F)cc1)C1(O)CCCC1)c1nccc(C(F)(F)F)c1Cl (single isomer, unassigned) [Compound 59, 3-chloro-N-[(4-fluorophenyl)(1-hydroxycyclopentyl)methyl]-4-(trifluoromethyl)pyridine-2-carboxamide]"

# Same assay, conditions: human GlyT1
row,IC50 [nM],SMILES
1,1100,"O=C(NC(c1ccccc1Cl)C1(O)CCC(F)(F)CC1)c1ccc(C(F)(F)F)nc1Cl (single isomer, unassigned) [Compound 409, 2-chloro-N-[(2-chlorophenyl)(4,4-difluoro-1-hydroxycyclohexyl)methyl]-6-(trifluoromethyl)pyridine-3-carboxamide]"
